The text below walks through data of ChEMBL document CHEMBL1131285, “Quinolines as potent 5-lipoxygenase inhibitors: synthesis and biological profile of L-746,530” (Bioorg Med Chem Lett, 1998).

For one test, the species on record is Homo sapiens. The experiment in a line: Compound was evaluated for in vitro inhibition of leukotriene (LTB4) in human whole blood (HWB). The class given is functional.
For test [1], the target named is T1, Polyunsaturated fatty acid 5-lipoxygenase (Homo sapiens, UniProt P09917).
T1 sequence (P09917 whole entry): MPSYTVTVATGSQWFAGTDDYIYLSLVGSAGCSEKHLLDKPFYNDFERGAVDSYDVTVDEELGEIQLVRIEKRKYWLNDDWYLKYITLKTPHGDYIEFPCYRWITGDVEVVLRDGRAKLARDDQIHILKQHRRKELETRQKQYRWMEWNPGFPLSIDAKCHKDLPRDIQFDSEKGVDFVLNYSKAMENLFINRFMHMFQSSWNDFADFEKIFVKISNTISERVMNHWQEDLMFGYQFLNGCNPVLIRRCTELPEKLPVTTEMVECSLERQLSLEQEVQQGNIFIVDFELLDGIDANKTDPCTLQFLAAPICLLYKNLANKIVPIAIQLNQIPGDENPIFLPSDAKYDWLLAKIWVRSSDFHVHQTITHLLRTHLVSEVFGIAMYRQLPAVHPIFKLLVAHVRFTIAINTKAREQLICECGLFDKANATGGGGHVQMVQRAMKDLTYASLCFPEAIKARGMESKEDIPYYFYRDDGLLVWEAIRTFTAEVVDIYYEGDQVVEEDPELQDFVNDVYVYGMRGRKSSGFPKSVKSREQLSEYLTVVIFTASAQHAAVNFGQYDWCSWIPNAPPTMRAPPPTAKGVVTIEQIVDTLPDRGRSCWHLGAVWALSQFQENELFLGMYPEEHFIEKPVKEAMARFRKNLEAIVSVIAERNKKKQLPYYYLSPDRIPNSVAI
As to the kind of experiment: Compound was evaluated for in vitro inhibition of recombinant human 5-lipoxygenase (5-LO).

Test [2] is described as follows: Compound was evaluated for in vitro inhibition of leukotriene (LTB4) in human peripheral blood polymorphonuclear leukocytes (HPMN). The class given is functional.
A further test relates to Rattus norvegicus. The experiment in a line: The effect on the biosynthesis of leukotriene B4 in vivo was evaluated in the rat pleural cavity using a carrageenan-induced model of inflammation after oral administration at 6 hr. In kind it is functional.

What is called IC50 is the concentration needed to halve the response being measured. In the case of `N#Cc1cc(-c2ccoc2)c2ccc(OCc3cccc(C4(O)CC5COC(C4)O5)c3)cc2n1` (stereo not given), the IC50 in the test filed under Homo sapiens is 0.287 µM; in test [1], > 3 µM; in test [2], 0.01 µM.

With `OC1(c2cccc(COc3ccc4c(-c5ccoc5)cncc4c3)n2)CC2COC(C1)O2` (stereo not given), the IC50 in the test filed under Homo sapiens amounted to 0.09 µM; in test [1], 1.46 µM; in test [2] it was 0.0103 µM.

With `N#Cc1cc(-c2ccoc2)c2ccc(OCc3cccc(C4(O)CC5COC(C4)O5)n3)cc2n1` (stereo not given), the values for the IC50 (in the test filed under Homo sapiens; in test [1]; in test [2]) were 0.103 µM, 0.036 µM and 0.004 µM, respectively.

For orientation: ED50 means the dose at which the effect has come halfway, by size or by number of responders. Higher therefore signals weaker potency. Turning to `N#Cc1cc(-c2ccoc2)c2ccc(COc3cc(F)cc(C4(O)CC5COC(C4)O5)c3)cc2n1` (stereo not given), the ED50 in the test on Rattus norvegicus is < 0.1 mg/kg.

On to `O=c1cc(-c2ccoc2)c2ccc(OCc3cccc(C4(O)CC5COC(C4)O5)n3)cc2n1Cc1ccccc1` (stereo not given), for which the IC50 worked out at 0.16 µM in the test listed under Homo sapiens, 0.102 µM in test [1] and 0.0058 µM in test [2].

`N#Cc1cc(-c2ccoc2)c2ccc(OCc3cccc(C4(O)CC5COC(C4)O5)n3)cc2c1` (stereo not given) yielded an IC50 in test [2] of 0.0016 µM.

For the compound `N#Cc1cc(-c2ccoc2)c2ccc(CSc3cc(F)cc(C4(O)CC5COC(C4)O5)c3)cc2n1` (stereo not given), the IC50 in the test listed under Homo sapiens came to 0.193 µM; in test [1], 0.124 µM; in test [2], 0.006 µM.

Turning to `N#Cc1cc2cc(OCc3cccc(C4(O)CC5COC(C4)O5)n3)ccc2c(-c2ccoc2)n1` (stereo not given), the results for the IC50 (in the test listed under Homo sapiens; in test [1]; in test [2]) were 0.047 µM, 1.96 µM and 0.018 µM, respectively.
